# Molecular target: T1, ERR1 (also known as ERR-α or ERR-1) (Homo sapiens, UniProt P11474)
# T1 construct: the ^6His-tagged-ERR1 LBD
# T1 sequence (P11474 193-421 limits assumed): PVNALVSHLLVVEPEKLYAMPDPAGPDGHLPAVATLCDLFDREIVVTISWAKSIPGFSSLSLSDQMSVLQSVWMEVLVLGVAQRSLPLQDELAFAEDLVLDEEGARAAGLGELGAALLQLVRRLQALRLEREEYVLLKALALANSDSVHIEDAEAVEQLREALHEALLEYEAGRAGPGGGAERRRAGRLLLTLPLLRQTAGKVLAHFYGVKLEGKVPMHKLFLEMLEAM
# Assay: TR-FRET assay: disruption of co-activator peptide binding to ERR1 LBD
# Type: biochemical
# Details: 6His-tagged ERR1 LBD 6 nM, GST-SRC-2 peptide 6 nM, 25° C., 4-18 hours; average of 3 independent experiments
# Outline: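 The 6His-ERR1 LBD and a GST-hSRC2 co-activator peptide were detected by α-GST Eu cryptate and α-6His-XL665 TR-FRET. Buffer was 25 mM Tris pH 8, 2.5 mM Hepes, 20 mM KCl, 1 mM DTT, 0.05 mg/mL BSA, equilibrated 4-18 h at 25° C. Dose-response curves were fitted hyperbolically and averaged over 3 independent experiments.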
row,Structure (SMILES),EC50 [nM]
1,"N#Cc1ccc(Oc2ccc(/C=C3\SC(N4CCOCC4)=NC3=O)cc2F)c(C(F)(F)F)c1 [Compound 6, 4-[2-Fluoro-4-(2-morpholin-4-yl-4-oxo-4H-thiazol-5-ylidenemethyl)-phenoxy]-3-trifluoromethyl-benzonitrile]",50
2,"CN1CCN(C2=NC(=O)/C(=C/c3ccc(Oc4ccc(C#N)cc4C(F)(F)F)c(F)c3)S2)CC1 [Compound 8, 4-{2-Fluoro-4-[2-(4-methyl-piperazin-1-yl)-4-oxo-4H-thiazol-5-ylidenemethyl]-phenoxy}-3-trifluoromethyl-benzonitrile]",14
3,"COc1cc(/C=C2\SC(N(C)OC)=NC2=O)ccc1Oc1ccc(C#N)cc1C(F)(F)F [Example 75, 4-{2-Methoxy-4-[2-(methoxy-methyl-amino)-4-oxo-4H-thiazol-5-ylidenemethyl]-phenoxy}-3-trifluoromethyl-benzonitrile]",32
4,"COc1cc(/C=C2\SC(N)=NC2=O)ccc1Oc1ccc(C#N)cc1Cl [Compound 2, 4-[4-(2-Amino-4-oxo-4H-thiazol-5-ylidenemethyl)-2-methoxy-phenoxy]-3-chloro-benzonitrile]",210
5,"COc1cc(/C=C2\SC(N3CC(C)OC(C)C3)=NC2=O)ccc1Oc1ccc(C#N)cc1C(F)(F)F (stereo not shown) [Example 40, 4-{4-[2-(2,6-Dimethyl-morpholin-4-yl)-4-oxo-4H-thiazol-5-ylidenemethyl]-2-methoxy-phenoxy}-3-trifluoromethyl-benzonitrile]",7
6,"COc1cc(/C=C2\SC(N(CCO)CCO)=NC2=O)ccc1Oc1ccc(C(F)(F)F)cc1C(F)(F)F [Example 117, 2-[Bis-(2-hydroxy-ethyl)-amino]-5-[4-(2,4-bis-trifluoromethyl-phenoxy)-3-methoxy-benzylidene]-thiazol-4-one]",40
7,"N#Cc1ccc(Oc2ccc(/C=C3\SC(NCCN4CCNC(=O)C4)=NC3=O)cc2F)c(C(F)(F)F)c1 [Example 99, 4-(2-Fluoro-4-{4-oxo-2-[2-(3-oxo-piperazin-1-yl)-ethylamino]-4H-thiazol-5-ylidenemethyl}-phenoxy)-3-trifluoromethyl-benzonitrile]",18
8,"COc1cc(/C=C2\SC(N3CCC(N(C)C)CC3)=NC2=O)ccc1Oc1ccc(C#N)cc1C(F)(F)F [Example 86, 4-{4-[2-(4-Dimethylamino-piperidin-1-yl)-4-oxo-4H-thiazol-5-ylidenemethyl]-2-methoxy-phenoxy}-3-trifluoromethyl-benzonitrile]",10
9,"O=C1N=C(NCCCN2CCCC2=O)S/C1=C\c1ccc(Oc2ccc(Cl)cc2C(F)(F)F)c(F)c1 [Example 67, 5-[4-(4-Chloro-2-trifluoromethyl-phenoxy)-3-fluoro-benzylidene]-2-[3-(2-oxo-pyrrolidin-1-yl)-propylamino]-thiazol-4-one]",3
10,"COC(=O)c1ccc(Oc2ccc(/C=C3\SC(N4CCC(C(=O)OC)CC4)=NC3=O)cc2OC)c(C(F)(F)F)c1 [Example 113, 1-{5-[3-Methoxy-4-(4-methoxycarbonyl-2-trifluoromethyl-phenoxy)-benzylidene]-4-oxo-4,5-dihydro-thiazol-2-yl}-piperidine-4-carboxylic acid methyl ester]",14
11,"N#Cc1ccc(Oc2ccc(/C=C3\SC(N4CCC(O)C4)=NC3=O)cc2F)c(C(F)(F)F)c1 (stereo not shown) [Example 45, 4-{2-Fluoro-4-[2-(3-hydroxy-pyrrolidin-1-yl)-4-oxo-4H-thiazol-5-ylidenemethyl]-phenoxy}-3-trifluoromethyl-benzonitrile]",39
12,"COC(=O)CC1CCN(C2=NC(=O)/C(=C/c3ccc(Oc4ccc(C#N)cc4C(F)(F)F)c(OC)c3)S2)CC1 [Example 83, (1-{5-[4-(4-Cyano-2-trifluoromethyl-phenoxy)-3-methoxy-benzylidene]-4-oxo-4,5-dihydro-thiazol-2-yl}-piperidin-4-yl)-acetic acid methyl ester]",26
13,"COc1cc(/C=C2\SC(N3CCNC(=O)C3)=NC2=O)ccc1Oc1ccc(C#N)cc1C(F)(F)F [Compound 21, 4-{2-Methoxy-4-[4-oxo-2-(3-oxo-piperazin-1-yl)-4H-thiazol-5-ylidenemethyl]-phenoxy}-3-trifluoromethyl-benzonitrile]",9
14,"COc1cc(/C=C2\SC(NC3CCN(CCO)CC3)=NC2=O)ccc1Oc1ccc(C#N)cc1C(F)(F)F [Example 111, 4-(4-{2-[1-(2-Hydroxy-ethyl)-piperidin-4-ylamino]-4-oxo-4H-thiazol-5-ylidenemethyl}-2-methoxy-phenoxy)-3-trifluoromethyl-benzonitrile]",15

# Other lines, results leading:
row,EC50 [nM],Structure (SMILES)
1,29,"COc1cc(/C=C2\SC(NCc3ccccn3)=NC2=O)ccc1Oc1ccc(C#N)cc1C(F)(F)F [Compound 17, 4-(2-Methoxy-4-{4-oxo-2-[(pyridin-2-ylmethyl)-amino]-4H-thiazol-5-ylidenemethyl}-phenoxy)-3-trifluoromethyl-benzonitrile]"
2,17,"COc1cc(/C=C2\SC(NCCOCCO)=NC2=O)ccc1Oc1ccc(C#N)cc1C(F)(F)F [Example 69, 4-(4-{2-[2-(2-Hydroxy-ethoxy)-ethylamino]-4-oxo-4H-thiazol-5-ylidenemethyl}-2-methoxy-phenoxy)-3-trifluoromethyl-benzonitrile]"
3,9,"COc1cc(/C=C2\SC(NCCCN3CCCC3=O)=NC2=O)ccc1Oc1ccc(C#N)cc1C(F)(F)F [Compound 22, 4-(2-Methoxy-4-{4-oxo-2-[3-(2-oxo-pyrrolidin-1-yl)-propylamino]-4H-thiazol-5-ylidenemethyl}-phenoxy)-3-trifluoromethyl-benzonitrile]"
4,13,"COc1cc(/C=C2\SC(NCCNC(C)=O)=NC2=O)ccc1Oc1ccc(C#N)cc1C(F)(F)F [Example 71, N-(2-{5-[4-(4-Cyano-2-trifluoromethyl-phenoxy)-3-methoxy-benzylidene]-4-oxo-4,5-dihydro-thiazol-2-ylamino}-ethyl)-acetamide]"
5,12,"COc1cc(/C=C2\SC(NCCc3cccnc3)=NC2=O)ccc1Oc1ccc(C#N)cc1C(F)(F)F [Example 29, 4-{2-Methoxy-4-[4-oxo-2-(2-pyridin-3-yl-ethylamino)-4H-thiazol-5-ylidenemethyl]-phenoxy}-3-trifluoromethyl-benzonitrile]"
6,21,"COc1cc(/C=C2\SC(NCCO)=NC2=O)ccc1Oc1ccc(C#N)cc1C(F)(F)F [Example 32, 4-{4-[2-(2-Hydroxy-ethylamino)-4-oxo-4H-thiazol-5-ylidenemethyl]-2-methoxy-phenoxy}-3-trifluoromethyl-benzonitrile]"
7,15,"COc1cc(/C=C2\SC(NCc3ccoc3)=NC2=O)ccc1Oc1ccc(C#N)cc1C(F)(F)F [Example 88, 4-(4-{2-[(Furan-3-ylmethyl)-amino]-4-oxo-4H-thiazol-5-ylidenemethyl}-2-methoxy-phenoxy)-3-trifluoromethyl-benzonitrile]"
8,11,"COc1cc(/C=C2\SC(NCCCN3CCNC(=O)C3)=NC2=O)ccc1Oc1ccc(C#N)cc1C(F)(F)F [Example 101, 4-(2-Methoxy-4-{4-oxo-2-[3-(3-oxo-piperazin-1-yl)-propylamino]-4H-thiazol-5-ylidenemethyl}-phenoxy)-3-trifluoromethyl-benzonitrile]"
9,9,"COc1cc(/C=C2\SC(NCCF)=NC2=O)ccc1Oc1ccc(C#N)cc1C(F)(F)F [Example 91, 4-{4-[2-(2-Fluoro-ethylamino)-4-oxo-4H-thiazol-5-ylidenemethyl]-2-methoxy-phenoxy}-3-trifluoromethyl-benzonitrile]"
10,32,"COc1cc(/C=C2\SC(NCCN3CCCC3)=NC2=O)ccc1Oc1ccc(C#N)cc1C(F)(F)F [Compound 20, 4-{2-Methoxy-4-[4-oxo-2-(2-pyrrolidin-1-yl-ethylamino)-4H-thiazol-5-ylidenemethyl]-phenoxy}-3-trifluoromethyl-benzonitrile]"
11,7,"COC(=O)CNC1=NC(=O)/C(=C/c2ccc(Oc3ccc(C#N)cc3C(F)(F)F)c(OC)c2)S1 [Example 84, {5-[4-(4-Cyano-2-trifluoromethyl-phenoxy)-3-methoxy-benzylidene]-4-oxo-4,5-dihydro-thiazol-2-ylamino}-acetic acid methyl ester]"

# From patent US8580832B2, “Substituted phenoxy aminothiazolones as estrogen related receptor-α modulators” (Janssen Pharmaceutica N.V., priority 2007, dated 2013)
